Assay results as given in US8460669B2, “Compositions and methods for identifying response targets and treating flavivirus infection responses” (Academia Sinica, priority 2005, dated 2013).

How the values were obtained:
Conditions in all cases: sugar 1 mg/ml
Dectin-1 = target: T1, Dectin-1 (Homo sapiens, UniProt Q9BXN2); assay: Sugar competition EIA, Fc.Dectin-1 binding to GLPS-F3
T1 construct: The extracellular domains of lectin receptors, TREMs and TLTs were cloned by the reverse-transcriptase polymerase chain reaction (RT-PCR); made in house; host or cells: 293-F (FreeStyle 293) cells
T1 sequence (Q9BXN2 66-247 limits assumed): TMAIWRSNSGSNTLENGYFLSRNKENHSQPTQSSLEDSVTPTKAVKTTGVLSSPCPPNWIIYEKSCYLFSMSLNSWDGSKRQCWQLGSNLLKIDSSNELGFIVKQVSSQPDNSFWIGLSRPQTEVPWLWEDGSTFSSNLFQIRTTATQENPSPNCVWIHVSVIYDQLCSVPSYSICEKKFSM
Experimental: (§1) The interaction between GLPS-F3 and receptor.Fc was then tested. Unbiotinylated GLPS-F3 was immobilized at 100 ng/well as described above, and 100 μL receptor.Fc fusion protein (1 μg/ml in 2 mM MgCl2/2 mM CaCl2/1% BSA/TBST) was added into each well and incubated for 1 hour at room temperature. After washing with TBST, wells were incubated with peroxidase-conjugated goat anti-human IgG Ab (1:5000 dilution, Jackson ImmunoResearch Laboratories) in blocking buffer at room temperature for 30 min. Wells were incubated with 100 μL TMB substrate for 15 min after TBST washing and read at 450 nm in a Fusion plate reader (Perkin Elmer). The results were normalized with respect to Fc.Dectin-1 binding (Dectin-1 is a known lectin receptor that binds to β-1,3-glucan which is the backbone found in GLPS-F3). FIG. 6B depicts in graphical form the affinity of each receptor for GLPS-F3 relative to Dectin-1. […] There was also weaker but positive GLPS-F3 binding ability (25-50% binding intensity compared to Fc.dectin-1) found in Fc.NKG2D, Fc.MINCLE, Fc.mKCR, DCAL1.Fc, DEC205.Fc, Endo180.Fc and NKp30(NCR3).Fc.
(§2) To understand the interaction of GLPS-F3 with specific innate immunity receptors, the polysaccharides mannan and β-glucan and the monosaccharides D-mannose (Man), D-glucose (Glc), N-acetyl-glucosamine (GlcNAc), D-galactose (Gal), N-acetyl-galactosamine (GalNAc), L-fucose (Fuc) and sialic acid, were used in a competition assay. […] The assays were carried out as in Example 9, with the addition of 1 mg/ml of each polysaccharide or monosaccharide.

CLEC-2 = target: T2, CLEC-2 (Homo sapiens, UniProt Q9P126); assay: Sugar competition EIA, Fc.CLEC-2 binding to GLPS-F3
T2 construct: The extracellular domains of lectin receptors, TREMs and TLTs were cloned by the reverse-transcriptase polymerase chain reaction (RT-PCR); made in house; host or cells: 293-F (FreeStyle 293) cells
T2 sequence (Q9P126 55-229 limits assumed): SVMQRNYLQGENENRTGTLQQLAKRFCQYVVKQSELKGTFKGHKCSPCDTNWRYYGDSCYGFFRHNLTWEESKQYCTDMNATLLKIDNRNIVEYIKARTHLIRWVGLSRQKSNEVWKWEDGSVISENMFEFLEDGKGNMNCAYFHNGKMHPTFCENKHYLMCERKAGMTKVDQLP
Experimental: as §1, §2

Langerin = target: T3, Langerin (Homo sapiens, UniProt Q9UJ71); assay: Sugar competition EIA, Fc.Langerin binding to GLPS-F3
T3 construct: The extracellular domains of lectin receptors, TREMs and TLTs were cloned by the reverse-transcriptase polymerase chain reaction (RT-PCR); made in house; host or cells: 293-F (FreeStyle 293) cells
T3 sequence (Q9UJ71 65-328 limits assumed): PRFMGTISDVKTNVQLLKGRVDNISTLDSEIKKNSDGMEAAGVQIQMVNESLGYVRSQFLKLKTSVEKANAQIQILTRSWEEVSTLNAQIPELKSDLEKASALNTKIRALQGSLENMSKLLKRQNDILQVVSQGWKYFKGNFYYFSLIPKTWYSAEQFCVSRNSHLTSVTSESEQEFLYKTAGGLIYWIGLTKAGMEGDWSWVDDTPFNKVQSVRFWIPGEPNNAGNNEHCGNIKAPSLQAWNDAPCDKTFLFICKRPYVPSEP

TLR4.Fc = target: T4, TLR4.Fc (Homo sapiens, UniProt O00206); assay: Sugar competition EIA, TLR4.Fc binding to GLPS-F3
T4 construct: The extracellular domains of several innate immunity receptors from immune cells were cloned by reverse-transcription polymerase chain reaction (RT-PCR); made in house; host or cells: 293-F (FreeStyle 293) cells
T4 sequence (O00206 24-631 limits assumed): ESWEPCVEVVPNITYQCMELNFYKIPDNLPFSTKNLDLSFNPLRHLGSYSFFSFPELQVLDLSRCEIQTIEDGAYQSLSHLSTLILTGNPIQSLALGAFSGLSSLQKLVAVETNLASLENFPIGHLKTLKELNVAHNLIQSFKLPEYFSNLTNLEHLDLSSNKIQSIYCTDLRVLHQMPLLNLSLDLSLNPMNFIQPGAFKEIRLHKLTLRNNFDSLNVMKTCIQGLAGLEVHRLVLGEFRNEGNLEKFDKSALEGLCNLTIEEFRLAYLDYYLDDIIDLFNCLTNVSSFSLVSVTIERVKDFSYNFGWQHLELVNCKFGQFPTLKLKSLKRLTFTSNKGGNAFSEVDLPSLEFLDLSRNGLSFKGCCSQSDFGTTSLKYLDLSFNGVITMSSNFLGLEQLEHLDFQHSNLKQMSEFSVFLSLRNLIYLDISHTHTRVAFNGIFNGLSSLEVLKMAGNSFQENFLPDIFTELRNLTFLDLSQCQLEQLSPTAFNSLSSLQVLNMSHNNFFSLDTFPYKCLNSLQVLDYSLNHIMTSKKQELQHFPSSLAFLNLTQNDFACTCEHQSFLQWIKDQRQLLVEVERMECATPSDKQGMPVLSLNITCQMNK

MMR.Fc = target: T5, MMR.Fc (Homo sapiens, UniProt P22897); assay: Sugar competition EIA, MMR.Fc binding to GLPS-F3
T5 construct: The extracellular domains of lectin receptors, TREMs and TLTs were cloned by the reverse-transcriptase polymerase chain reaction (RT-PCR); made in house; host or cells: 293-F (FreeStyle 293) cells
T5 sequence (P22897 19-1389 limits assumed): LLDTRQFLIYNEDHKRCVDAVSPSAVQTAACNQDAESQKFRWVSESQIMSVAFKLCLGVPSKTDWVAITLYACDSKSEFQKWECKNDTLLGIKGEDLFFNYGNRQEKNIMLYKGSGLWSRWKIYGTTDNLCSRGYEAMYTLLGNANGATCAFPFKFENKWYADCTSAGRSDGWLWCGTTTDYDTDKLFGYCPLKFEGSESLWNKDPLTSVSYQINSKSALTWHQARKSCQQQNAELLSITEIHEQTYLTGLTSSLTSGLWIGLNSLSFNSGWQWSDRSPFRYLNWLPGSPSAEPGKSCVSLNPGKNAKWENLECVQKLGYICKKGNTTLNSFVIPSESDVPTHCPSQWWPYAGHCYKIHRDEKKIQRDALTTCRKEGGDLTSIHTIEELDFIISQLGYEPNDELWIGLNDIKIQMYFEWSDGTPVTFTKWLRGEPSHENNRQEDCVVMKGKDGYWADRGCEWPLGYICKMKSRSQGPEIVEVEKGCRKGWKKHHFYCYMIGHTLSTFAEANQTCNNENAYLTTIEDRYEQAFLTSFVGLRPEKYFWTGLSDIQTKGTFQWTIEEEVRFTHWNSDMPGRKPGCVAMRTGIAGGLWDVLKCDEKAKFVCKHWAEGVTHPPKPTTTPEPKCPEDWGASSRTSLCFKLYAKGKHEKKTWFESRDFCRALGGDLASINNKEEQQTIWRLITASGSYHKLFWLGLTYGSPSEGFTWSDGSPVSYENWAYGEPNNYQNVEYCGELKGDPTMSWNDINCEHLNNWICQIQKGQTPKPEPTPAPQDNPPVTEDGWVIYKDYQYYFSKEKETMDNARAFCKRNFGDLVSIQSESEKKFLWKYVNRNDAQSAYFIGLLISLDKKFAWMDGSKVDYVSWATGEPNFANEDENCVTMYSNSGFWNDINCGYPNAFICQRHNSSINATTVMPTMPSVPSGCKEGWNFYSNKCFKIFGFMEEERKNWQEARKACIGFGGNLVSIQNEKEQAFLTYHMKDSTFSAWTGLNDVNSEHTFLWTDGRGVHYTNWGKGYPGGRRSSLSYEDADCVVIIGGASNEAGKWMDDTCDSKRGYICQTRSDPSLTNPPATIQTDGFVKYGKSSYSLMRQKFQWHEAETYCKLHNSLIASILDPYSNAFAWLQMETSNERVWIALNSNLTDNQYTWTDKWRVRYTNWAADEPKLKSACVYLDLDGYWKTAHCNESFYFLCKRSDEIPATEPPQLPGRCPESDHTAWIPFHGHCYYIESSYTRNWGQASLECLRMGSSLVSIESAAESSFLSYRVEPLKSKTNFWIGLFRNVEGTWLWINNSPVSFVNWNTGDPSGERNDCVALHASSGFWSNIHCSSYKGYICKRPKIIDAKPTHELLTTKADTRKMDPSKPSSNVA

CLEC-6 = target: T6, CLEC-6 (Homo sapiens, UniProt Q8WXI8); assay: Sugar competition EIA, Fc.CLEC-6 binding to GLPS-F3
T6 construct: The extracellular domains of lectin receptors, TREMs and TLTs were cloned by the reverse-transcriptase polymerase chain reaction (RT-PCR); made in house; host or cells: 293-F (FreeStyle 293) cells
T6 sequence (Q8WXI8 39-215 limits assumed): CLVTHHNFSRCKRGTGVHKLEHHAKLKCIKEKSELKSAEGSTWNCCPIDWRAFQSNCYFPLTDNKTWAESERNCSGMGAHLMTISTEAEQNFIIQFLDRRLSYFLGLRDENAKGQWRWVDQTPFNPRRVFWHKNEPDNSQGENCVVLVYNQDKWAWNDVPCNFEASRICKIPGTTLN
Experimental: as §1, §2

Percentage of binding of Dectin-1 Fc fusion to GLPS-F3 relative to binding in absence of sugar competitor (Dectin-1)	inhibition of interaction between GLPS-F3 and Fc.Dectin-1 (Dectin-1)	Percentage of binding of CLEC-2 Fc fusion to GLPS-F3 relative to binding in absence of sugar competitor (CLEC-2)	Percentage of binding of Langerin Fc fusion to GLPS-F3 relative to binding in absence of sugar competitor (Langerin)	Percentage of binding of TLR4.Fc to GLPS-F3 relative to binding in absence of sugar competitor (TLR4.Fc)	Percentage of binding of MMR.Fc to GLPS-F3 relative to binding in absence of sugar competitor (MMR.Fc)	Percentage of binding of CLEC-6 Fc fusion to GLPS-F3 relative to binding in absence of sugar competitor (CLEC-6)	Compound	inhibition of interaction between Fc.Langerin and GLPS-F3 (Langerin)	inhibition of TLR4.Fc and GLPS-F3 interaction (TLR4.Fc)	inhibition of interaction between GLPS-F3 and MMR.Fc (MMR.Fc)
42 ± 0.3%	58%	95 ± 5.1%	77 ± 3.2%	96 ± 4.0%	100 ± 4.2%	98 ± 7.3%	β-1,3-glucan [b-glucan]			
92 ± 5.2%		91 ± 8.5%	76 ± 1.9%	56 ± 1.9%	12 ± 2.0%	82 ± 6.5%	C[C@H](O)[C@@H](O)[C@@H](O)[C@H](O)C=O [Fuc, L-fucose]		44%	88%

Compound	Percentage of binding of Dectin-1 Fc fusion to GLPS-F3 relative to binding in absence of sugar competitor (Dectin-1)	inhibition of interaction between GLPS-F3 and Fc.Dectin-1 (Dectin-1)	Percentage of binding of CLEC-2 Fc fusion to GLPS-F3 relative to binding in absence of sugar competitor (CLEC-2)	Percentage of binding of Langerin Fc fusion to GLPS-F3 relative to binding in absence of sugar competitor (Langerin)	Percentage of binding of TLR4.Fc to GLPS-F3 relative to binding in absence of sugar competitor (TLR4.Fc)	Percentage of binding of MMR.Fc to GLPS-F3 relative to binding in absence of sugar competitor (MMR.Fc)	Percentage of binding of CLEC-6 Fc fusion to GLPS-F3 relative to binding in absence of sugar competitor (CLEC-6)	inhibition of interaction between Fc.Langerin and GLPS-F3 (Langerin)	inhibition of TLR4.Fc and GLPS-F3 interaction (TLR4.Fc)	inhibition of interaction between GLPS-F3 and MMR.Fc (MMR.Fc)
mannan	82 ± 0.2%		88 ± 6.3%	5 ± 0.9%	28 ± 6.3%	2 ± 0.5%	75 ± 0.8%	95%	72%	98%
